Measurements: ChEMBL document CHEMBL1201862, “PubChem BioAssay data set” (2004)
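Test compounds were applied to cells in 96-well plates for 48 hours at 5 doses. At the GI50, growth is halved.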 Activity calls are given as the source filed them. Rule as the data show it: active = GI50 up to about 1.1 µM and inactive = higher.

Legend:
Assay in all cases: growth of human tumour cells (NCI), 48 h
NCI-H23 = system: NCI-H23
NCI-H522 = system: NCI-H522
ACHN = system: ACHN
786-0 = system: 786-0
SK-MEL-2 = system: SK-MEL-2
RXF 393 = system: RXF 393
HL-60 = system: HL-60
MDA-N = system: MDA-N
Hs-578T = system: Hs-578T
NCI-H460 = system: NCI-H460
SNB-75 = system: SNB-75
SF-539 = system: SF-539
SW-620 = system: SW-620
MCF7 = system: MCF7
RPMI-8226 = system: RPMI-8226
SF-268 = system: SF-268
IGROV-1 = system: IGROV-1
M14 = system: M14
SK-MEL-28 = system: SK-MEL-28
HCT-15 = system: HCT-15
T47D = system: T47D
HOP-62 = system: HOP-62
UACC-62 = system: UACC-62
HT-29 = system: HT-29
TK-10 = system: TK-10
COLO 205 = system: COLO 205
OVCAR-3 = system: OVCAR-3
MDA-MB-435 = system: MDA-MB-435
A549 = system: A549
SK-MEL-5 = system: SK-MEL-5
K562 = system: K562
MDA-MB-231 = system: MDA-MB-231
SK-OV-3 = system: SK-OV-3
SNB-19 = system: SNB-19
HOP-92 = system: HOP-92
U-251 = system: U-251
HCT-116 = system: HCT-116
NCI/ADR-RES = system: NCI/ADR-RES
PC-3 = system: PC-3
EKVX = system: EKVX
A498 = system: A498
DU-145 = system: DU-145
SF-295 = system: SF-295
SN12C = system: SN12C
MOLT-4 = system: MOLT-4
CAKI-1 = system: CAKI-1
HCC 2998 = system: HCC 2998
BT-549 = system: BT-549
LOX IMVI = system: LOX IMVI
KM12 = system: KM12
CCRF-CEM = system: CCRF-CEM
Malme-3M = system: Malme-3M
OVCAR-8 = system: OVCAR-8
UO-31 = system: UO-31
OVCAR-5 = system: OVCAR-5
UACC-257 = system: UACC-257
SR = system: SR

SMILES: CCN(CC)CCCNc1nnc(C)c2[nH]c3ccccc3c12
- GI50 (NCI-H23): 15.5 µM (inactive)
- GI50 (NCI-H522): 5.7 µM (inactive)
- GI50 (ACHN): 18 µM (inactive)
- GI50 (786-0): 18.2 µM (inactive)
- GI50 (SK-MEL-2): 15.2 µM (inactive)
- GI50 (RXF 393): 17.7 µM (inactive)
- GI50 (HL-60): 3.28 µM (inactive)
- GI50 (MDA-N): 13.7 µM (inactive)
- GI50 (Hs-578T): 15.4 µM (inactive)
- GI50 (NCI-H460): 8.13 µM (inactive)
- GI50 (SNB-75): 18.3 µM (inactive)
- GI50 (SF-539): 2.28 µM (inactive)
- GI50 (SW-620): 9.2 µM (inactive)
- GI50 (MCF7): 3.61 µM (inactive)
- GI50 (RPMI-8226): 23.5 µM (inactive)
- GI50 (SF-268): 8.73 µM (inactive)
- GI50 (IGROV-1): 12.1 µM (inactive)
- GI50 (M14): 16 µM (inactive)
- GI50 (SK-MEL-28): 18.7 µM (inactive)
- GI50 (HCT-15): > 100 µM
- GI50 (T47D): 12.7 µM (inactive)
- GI50 (HOP-62): 7.31 µM (inactive)
- GI50 (UACC-62): 13.7 µM (inactive)
- GI50 (HT-29): 6.49 µM (inactive)
- GI50 (TK-10): 20.2 µM (inactive)
- GI50 (COLO 205): 2.7 µM (inactive)
- GI50 (OVCAR-3): 11.7 µM (inactive)
- GI50 (MDA-MB-435): 11.6 µM (inactive)
- GI50 (A549): 17.8 µM (inactive)
- GI50 (SK-MEL-5): 14.6 µM (inactive)
- GI50 (K562): 10.1 µM (inactive)
- GI50 (MDA-MB-231): 11.4 µM (inactive)
- GI50 (SK-OV-3): 11 µM (inactive)
- GI50 (SNB-19): 19.3 µM (inactive)
- GI50 (HOP-92): 6.9 µM (inactive)
- GI50 (U-251): 13.4 µM (inactive)
- GI50 (HCT-116): 5.36 µM (inactive)
- GI50 (NCI/ADR-RES): > 100 µM (inactive)
- GI50 (PC-3): 12.1 µM (inactive)
- GI50 (EKVX): 18.7 µM (inactive)
- GI50 (A498): 17.2 µM (inactive)
- GI50 (DU-145): 18.9 µM (inactive)
- GI50 (SF-295): 20.8 µM (inactive)
- GI50 (SN12C): 12.7 µM (inactive)
- GI50 (MOLT-4): 4.1 µM (inactive)
- GI50 (CAKI-1): > 100 µM (inactive)
- GI50 (HCC 2998): 9.95 µM (inactive)
- GI50 (BT-549): 21.6 µM (inactive)
- GI50 (LOX IMVI): 7.46 µM (inactive)
- GI50 (KM12): 11.4 µM (inactive)
- GI50 (CCRF-CEM): 4.42 µM (inactive)
- GI50 (Malme-3M): 15.1 µM (inactive)
- GI50 (OVCAR-8): 7.93 µM (inactive)
- GI50 (UO-31): 37.2 µM (inactive)
- GI50 (OVCAR-5): 19.6 µM (inactive)
- GI50 (UACC-257): 15.1 µM (inactive)
- GI50 (SR): 7.13 µM (inactive)
